{"source": "paper PMC3989234", "about": "“Introduction of Aromatic Ring-Containing Substituents in Cyclic Nucleotides Is Associated with Inhibition of Toxin Uptake by the Hepatocyte Transporters OATP 1B1 and 1B3” (PLoS ONE, 2014)", "key": {"primary rat hepatocytes [1]": {"tested_on": "primary rat hepatocytes", "details": "50 µM"}, "OATP1B3 [2]": {"target": "T1, OATP1B3 (Homo sapiens, UniProt Q9NPD5)", "T1 sequence (Q9NPD5 whole entry)": "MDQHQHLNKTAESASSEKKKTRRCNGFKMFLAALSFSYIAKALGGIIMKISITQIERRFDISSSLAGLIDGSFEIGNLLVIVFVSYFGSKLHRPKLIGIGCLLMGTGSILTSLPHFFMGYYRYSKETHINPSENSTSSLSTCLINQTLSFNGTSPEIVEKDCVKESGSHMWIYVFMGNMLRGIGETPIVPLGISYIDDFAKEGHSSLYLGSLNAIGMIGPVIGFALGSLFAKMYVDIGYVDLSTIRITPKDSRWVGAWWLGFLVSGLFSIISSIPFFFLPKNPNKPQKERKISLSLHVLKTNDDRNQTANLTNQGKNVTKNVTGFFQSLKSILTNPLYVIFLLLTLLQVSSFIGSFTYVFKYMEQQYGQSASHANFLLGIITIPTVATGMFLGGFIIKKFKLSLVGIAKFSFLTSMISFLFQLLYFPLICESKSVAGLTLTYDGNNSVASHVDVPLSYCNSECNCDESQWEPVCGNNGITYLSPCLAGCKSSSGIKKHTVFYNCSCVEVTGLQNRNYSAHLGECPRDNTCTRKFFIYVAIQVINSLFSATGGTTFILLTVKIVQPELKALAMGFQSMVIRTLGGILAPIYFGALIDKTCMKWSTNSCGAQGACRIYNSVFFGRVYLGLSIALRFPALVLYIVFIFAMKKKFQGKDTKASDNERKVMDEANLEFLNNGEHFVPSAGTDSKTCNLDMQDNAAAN", "details": "read-out: Ki for inhibition of sodium fluorescein accumulation, OATP1B3; competitive; inhibitor 10 min before, 3 min co-incubation; ± s.e. of the estimate; R2 0.91", "method": "(§1) Estimation of sodium fluorescein accumulation in OATP1B1/1B3 transfected cells was as described by [33], except that the cells were seeded in 24-well tissue culture plates at a density of 200 000 cells/well. Inhibitors were added 10 min prior to addition of sodium fluorescein, and the cells were then co-incubated with inhibitor and substrate for three min before removal of medium and washing.\n(§2) The data for uptake of fluorescein into HEK293T cells transfected with OATP1B1 or OATP1B3 in the absence or presence of inhibitor were fitted in SigmaPlot, using Michaelis Menten kinetics with competitive inhibition. Vmax and Km values obtained in absence of inhibitor were used to fit the Ki value for uptake in the presence of inhibitor."}, "OATP1B1 [3]": {"target": "T2, OATP1B1 (Homo sapiens, UniProt Q9Y6L6)", "T2 sequence (Q9Y6L6 1-691)": "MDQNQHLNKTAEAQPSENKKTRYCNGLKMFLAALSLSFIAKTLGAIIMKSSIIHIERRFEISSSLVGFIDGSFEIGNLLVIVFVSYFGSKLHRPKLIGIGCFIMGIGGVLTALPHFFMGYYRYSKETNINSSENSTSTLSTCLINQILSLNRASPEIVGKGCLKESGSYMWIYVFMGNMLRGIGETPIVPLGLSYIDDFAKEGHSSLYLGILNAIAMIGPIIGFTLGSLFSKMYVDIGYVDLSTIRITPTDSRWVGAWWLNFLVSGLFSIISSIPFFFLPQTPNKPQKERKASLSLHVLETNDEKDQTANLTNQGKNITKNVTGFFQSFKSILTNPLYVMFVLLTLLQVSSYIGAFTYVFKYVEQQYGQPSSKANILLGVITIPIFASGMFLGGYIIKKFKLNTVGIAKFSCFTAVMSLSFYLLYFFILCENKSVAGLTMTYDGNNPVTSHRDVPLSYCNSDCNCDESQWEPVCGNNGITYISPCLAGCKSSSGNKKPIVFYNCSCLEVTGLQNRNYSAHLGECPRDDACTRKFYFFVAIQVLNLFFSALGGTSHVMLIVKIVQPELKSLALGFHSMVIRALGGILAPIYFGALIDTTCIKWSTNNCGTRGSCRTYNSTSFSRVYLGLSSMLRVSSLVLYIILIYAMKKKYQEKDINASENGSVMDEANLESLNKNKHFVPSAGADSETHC"}, "OATP1B3 [4]": {"target": "T1, OATP1B3"}, "primary rat hepatocytes [5]": {"tested_on": "primary rat hepatocytes"}, "primary rat hepatocytes [6]": {"tested_on": "primary rat hepatocytes", "remark": "listed apart in the source"}, "OATP1B1 [7]": {"target": "T2, OATP1B1", "experiment": "Sodium fluorescein accumulation in OATP1B1-transfected HEK293T cells", "details": "read-out: Ki for inhibition of sodium fluorescein accumulation, OATP1B1; competitive; inhibitor 10 min before, 3 min co-incubation; ± s.e. of the estimate; R2 0.79", "method": "as §1, §2"}, "OATP1B3 [8]": {"target": "T1, OATP1B3", "experiment": "in vitro", "method": "as §1, §2"}, "OATP1B1 [9]": {"target": "T2, OATP1B1", "details": "cited from earlier work"}, "OATP1B3 [10]": {"target": "T1, OATP1B3", "details": "cited from earlier work"}, "[11]": {"substrate": "O=C1OC2(c3ccc(O)cc3Oc3cc(O)ccc32)c2ccccc21", "experiment": "cells, lysate or membranes", "details": "other: ± s.e. of the estimate", "method": "as §1, §2"}}, "note": "Read-outs that look alike come from different tables or passages of the source.", "data": [{"molecule": "CO[C@@H]1[C@@H]2OP(=O)(O)OC[C@H]2O[C@H]1n1c(Sc2ccc(Cl)cc2)nc2c(N)ncnc21", "note": "[8-pCPT-2′-O-Me-cAMP, 8-(4-Chlorophenylthio)-2′-O-methyladenosine-3′, 5′-cyclic monophosphate]", "values": [{"measurement": "Effect on [14C]-glycocholic acid accumulation in hepatocytes", "setting": "primary rat hepatocytes [1]", "result": "almost completely inhibited"}, {"measurement": "Ki", "setting": "OATP1B3 [2]", "result": "75 ± 22", "unit": "µM"}, {"measurement": "Effect on Nod-induced apoptosis / Nod transport, OATP1B1-transfected HEK293T cells", "setting": "OATP1B1 [3]", "result": "abolished"}, {"measurement": "IC50", "setting": "OATP1B1 [3]", "result": 46.4, "unit": "µM"}, {"measurement": "Ki", "setting": "OATP1B1 [3]", "result": 15.5, "unit": "µM"}, {"measurement": "Effect on Nod-induced apoptosis / Nod transport, OATP1B3-transfected HEK293T cells", "setting": "OATP1B3 [4]", "result": "abolished"}, {"measurement": "IC50", "setting": "OATP1B3 [4]", "result": 12.6, "unit": "µM"}, {"measurement": "Ki", "setting": "OATP1B3 [4]", "result": 3.38, "unit": "µM"}, {"measurement": "Effect on [3H]-Nod accumulation in hepatocytes", "setting": "primary rat hepatocytes [5]", "result": "almost completely inhibited"}, {"measurement": "Effect on Nod-induced hepatocyte apoptosis (Fig. 1A)", "setting": "primary rat hepatocytes [6]", "result": "inhibited completely apoptotic morphology"}, {"measurement": "Effect on Nod-induced hepatocyte apoptosis (Fig. 2A)", "setting": "primary rat hepatocytes [6]", "result": "clear inhibition"}, {"measurement": "Ki", "setting": "OATP1B1 [7]", "result": "46 ± 21", "unit": "µM"}]}, {"molecule": "O=C1OC2(c3ccc(O)cc3Oc3cc(O)ccc32)c2ccccc21", "note": "[fluorescein, sodium fluorescein]", "values": [{"measurement": "Km", "setting": "OATP1B3 [8]", "result": "285 ± 134", "unit": "µM"}]}, {"molecule": "Nostocyclopeptide-M1", "values": [{"measurement": "Potency as OATP1B1 inhibitor compared with the cAMP analogs", "setting": "OATP1B1 [9]", "result": "more potent inhibitor"}, {"measurement": "Potency as OATP1B3 inhibitor compared with the cAMP analogs", "setting": "OATP1B3 [10]", "result": "more potent inhibitor"}]}, {"molecule": "OATP1B1 (Homo sapiens) (protein) MDQNQHLNKTAEAQPSENKKTRYCNGLKMFLAALSLSFIAKTLGAIIMKSSIIHIERRFEISSSLVGFIDGSFEIGNLLVIVFVSYFGSKLHRPKLIGIGCFIMGIGGVLTALPHFFMGYYRYSKETNINSSENSTSTLSTCLINQILSLNRASPEIVGKGCLKESGSYMWIYVFMGNMLRGIGETPIVPLGLSYIDDFAKEGHSSLYLGILNAIAMIGPIIGFTLGSLFSKMYVDIGYVDLSTIRITPTDSRWVGAWWLNFLVSGLFSIISSIPFFFLPQTPNKPQKERKASLSLHVLETNDEKDQTANLTNQGKNITKNVTGFFQSFKSILTNPLYVMFVLLTLLQVSSYIGAFTYVFKYVEQQYGQPSSKANILLGVITIPIFASGMFLGGYIIKKFKLNTVGIAKFSCFTAVMSLSFYLLYFFILCENKSVAGLTMTYDGNNPVTSHRDVPLSYCNSDCNCDESQWEPVCGNNGITYISPCLAGCKSSSGNKKPIVFYNCSCLEVTGLQNRNYSAHLGECPRDDACTRKFYFFVAIQVLNLFFSALGGTSHVMLIVKIVQPELKSLALGFHSMVIRALGGILAPIYFGALIDTTCIKWSTNNCGTRGSCRTYNSTSFSRVYLGLSSMLRVSSLVLYIILIYAMKKKYQEKDINASENGSVMDEANLESLNKNKHFVPSAGADSETHC", "values": [{"measurement": "Km", "setting": "[11]", "result": "402 ± 140", "unit": "µM"}]}]}
